Test [1] relates to Staphylococcus aureus. Nature of the test: survived cell numbers (CFU) of Staphylococcus aureus after drug addition. Type of test: cell-based. The method, then: To CA-Mueller Hinton Broth medium were taken 1.8×10^8 Staphylococcus aureus, and then the foregoing RH2180-5 Peak 5 Substance (25 μg/mL), vancomycin (VM, 5 μg/mL), and gentamicin (GM, 2.5 μg/mL) were added thereinto; and then, survived cell numbers after 15 minutes, 30 minutes, 60 minutes, and 120 minutes were obtained as CFU (colony forming unit/mL).

In test [2] the test system is Staphylococcus aureus (MRSA4). The text has this: (§1) Antibacterial activity of the antibiotic-substance-containing fraction at each fractionation stage from a culture produced from RH2180-5 and that of the antibiotic substance obtained therefrom by separation and purification thereof can be evaluated by MIC. […] For example, it is done with a broth microdilution method based on CLSI (formerly NCCLS: National Committee for Clinical Laboratory Standards).
(§2) Antibacterial spectrum of the RH2180-5 Peak 5 Substance to various bacteria including MRSA and VRE was studied. In addition, influence of chemical resistance was also studied. For study of the latter, Staphylococcus aureus and Enterococcus faecalis were selected, wherein measurement of MIC value of each peak substance was made by a broth microdilution method based on CLSI (formerly NCCLS: National Committee for Clinical Laboratory Standards) as to Staphylococcus aureus not showing resistance to a chemical (hereinafter abbreviated as “MSSA 1”) and two kinds of MRSA showing resistance to many chemicals including methicillin (MRSA 3 and MRSA 4; see Table 3 for resistive chemicals) for Staphylococcus aureus; and as to Enterococcus faecalis not showing resistance to a chemical (hereinafter abbreviated as “EF 1”) and showing resistance to vancomycin (hereinafter abbreviated as “VRE”) for Enterococcus faecalis.
(§3) Test microorganisms of Staphylococcus aureus and Enterococcus faecalis, the same as Test Example 1, were selected; and measurement of MIC value of each peak substance was made by a broth microdilution method based on CLSI (formerly NCCLS: National Committee for Clinical Laboratory Standards) as to MSSA 1 and EF 1, and MRSA 3, MRSA 4, and VRE, the same as Test Example 1.
(§4) Antibacterial spectrum of the foregoing RH2180-5 Peak 5 Substance to various microorganisms including MRSA and VRE was studied. Each MIC value for the case added with 10% blood serum and for the case not added with the same was measured by a broth microdilution method based on CLSI (formerly NCCLS: National Committee for Clinical Laboratory Standards).

Test [3] deals with Enterococcus faecalis (EF1).
Description: as §1, §2, §3, §4

Test [4] has as its system Staphylococcus aureus (MRSA3).
Description: as §1, §2, §3, §4

In test [5] the test system is Staphylococcus aureus (MSSA1). The settings on record: MSSA1.
Description: as §1, §2, §3, §4

Test [6] concerns Enterococcus faecalis (VRE).
Description: as §1, §2, §3, §4

The subject of test [7] is Smith strain of Staphylococcus aureus. As to the kind of experiment: mouse Staphylococcus aureus infection model (therapeutic effect). Type of test: in vivo, mouse (ICR female). The settings on record: Staphylococcus aureus, ip. The procedure: Smith strain of Staphylococcus aureus was suspended in 7% mucin+0.2 mM ferric ammonium citrate, and 6.2×10^6 (20×LD50) thereof was administered into the peritoneal cavity of 5 mice per group (ICR female of four weeks of age). Each drug was injected hypodermically 2 hours after administration of the bacterium by the method shown below.
Similarly, ED50 of vancomycin to the mouse model used this time was studied. […] Here, ED50 values were obtained by the probit method.

Test [8] relates to Staphylococcus aureus. The format is cell-based. The method, then: A soil taken from various places was suspended in a physiological saline solution, and then the supernatant thereof was applied on a GA medium and a HV medium; and after incubation at 30° C., grown bacteria was separated and then cultured in an YME medium, a SGM medium, or a CDY medium at 30° C. for 5 days. Equal amount of acetone was added thereinto; and after they were suspended and centrifugally separated, the resulting supernatant was evaporated. The residue thus resulted was diluted with a physiological saline solution, and then the antibacterial activity thereof to Staphylococcus aureus was evaluated by MIC with a broth microdilution method. As a result, antibacterial activity was found in culture supernatant of 3487 strains out of 14346 strains.

Test [9] concerns Staphylococcus aureus. Nature of the test: silkworm Staphylococcus aureus infection model (therapeutic effect). Type of test: in vivo, silkworm (larva of Bombyx mori). Particulars: purification stages, Table 2. The text has this: In the present invention too, a first screening to narrow down effective strains from several tens of thousands of extraordinary large numbers of strains may be done by any method as far as the antibacterial activity can be evaluated with the said method; and thus, for example, by referring to MIC, test bodies showing the antibacterial activity to Staphylococcus aureus in culture supernatant of each strain may be picked up. This is because strains not showing the antibacterial activity at all are not in the scope of examination. Any method capable of evaluating the antibacterial activity may be used; but a method with which a strain recognized to show, with referring to MIC, the antibacterial activity to Staphylococcus aureus in culture supernatant of various test strains is picked up is preferable. […]
Strains recognized to show the therapeutic effect in the silkworm Staphylococcus aureus infection model are further subjected to various separation and purification treatments wherein the therapeutic effect is evaluated in each operation by using the silkworm Staphylococcus aureus infection model. […]

We go through eight molecules from patent publication US8754040B2, “Cyclic peptide compound, method for producing same, anti-infective agent, antibiotic-containing fraction, antibiotic, method for producing antibiotic, antibiotic-producing microorganism, and antibiotic produced by same” (priority 2010, dated 2014).

≈ marks a conversion by molar mass, not a printed value. Positions of bridges follow the written chain, without caps; N, C: chain ends. Non-standard residues stand in square brackets, D forms with d. Residues, ends and D or L forms follow the SMILES beside them. *: point of attachment. Hexanoyl(3-OH,5-Me) = CC(C)CC(O)CC(=O)*; dNMeF = CN[C@H](Cc1ccccc1)C(=O)O

Take Gentamicin [GM]: the “CFU/ml of S. aureus” value in the test with Staphylococcus aureus [1] (2.5 μg/ml, 15 minutes) is 2.6 × 10^7 CFU/ml; with Staphylococcus aureus [1] (2.5 μg/ml, 30 minutes) it was 7.6 × 10^5 CFU/ml; with Staphylococcus aureus [1] (2.5 μg/ml, 60 minutes), 1.6 × 10^5 CFU/ml; with Staphylococcus aureus [1] (2.5 μg/ml, 120 minutes), 4.0 × 10^5 CFU/ml.

Regarding `CC[C@H](C)[C@@H]1NC(=O)[C@@H](Cc2c[nH]c3ccccc23)NC(=O)[C@@H](CCC(N)=O)NC(=O)[C@H](CCC(=O)O)NC(=O)[C@@H](CCCNC(=N)N)NC(=O)[C@H](CC(C)C)NC(=O)[C@@H](Cc2ccccc2)NC(=O)CNC(=O)[C@H](CO)NC(=O)[C@@H](CCCNC(=N)N)NC(=O)[C@@H](NC(=O)CC(O)CCCC(C)C)[C@@H](C)OC(=O)[C@H]([C@@H](C)O)NC1=O` (single isomer, unassigned) [Peak P4], the MIC (commonly the lowest concentration found to suppress growth) is 12.5 mg/L (≈ 7.66 µM) in test [2]; 50 mg/L (≈ 30.6 µM) in [3]; 25.0 mg/L (≈ 15.3 µM) in test [4]; 12.5 mg/L (≈ 7.66 µM) in test [5]; 25 mg/L (≈ 15.3 µM) in [6].

On to `CC[C@H](C)[C@@H]1NC(=O)[C@@H](Cc2c[nH]c3ccccc23)NC(=O)[C@@H](CCC(N)=O)NC(=O)[C@H](CCC(=O)O)NC(=O)[C@@H](CCCNC(=N)N)NC(=O)[C@H](CC(C)C)NC(=O)[C@@H](Cc2ccccc2)N(C)C(=O)CNC(=O)[C@H](CO)NC(=O)[C@@H](CCCNC(=N)N)NC(=O)[C@@H](NC(=O)CC(O)CCC(C)C)[C@@H](C)OC(=O)[C@H]([C@@H](C)O)NC1=O` (single isomer, unassigned) [Peak P7], for which the MIC in test [2] is 12.5 mg/L (≈ 7.66 µM); in test [3] it was 50 mg/L (≈ 30.6 µM); in [4], 12.5 mg/L (≈ 7.66 µM); in test [5], 12.5 mg/L (≈ 7.66 µM); in test [6] it was 25 mg/L (≈ 15.3 µM).

Take `CN[C@H](CC(C)C)C(=O)N[C@H]1C(=O)N[C@@H](CC(N)=O)C(=O)N[C@H]2C(=O)N[C@H]3C(=O)N[C@H](C(=O)N[C@H](C(=O)O)c4cc(O)cc(O)c4-c4cc3ccc4O)[C@H](O)c3ccc(c(Cl)c3)Oc3cc2cc(c3O[C@@H]2O[C@H](CO)[C@@H](O)[C@H](O)[C@H]2O[C@H]2C[C@](C)(N)[C@H](O)[C@H](C)O2)Oc2ccc(cc2Cl)[C@H]1O` [Vancomycin]: the ED50 in test [7] came out at 1.6 mg/kg. Further, the “CFU/ml of S. aureus” value was 8.5 × 10^7 CFU/ml in the test with Staphylococcus aureus [1] (5 μg/ml, 15 minutes); 4.9 × 10^7 CFU/ml in the test with Staphylococcus aureus [1] (5 μg/ml, 30 minutes); 6.8 × 10^7 CFU/ml with Staphylococcus aureus [1] (5 μg/ml, 60 minutes); 3.4 × 10^7 CFU/ml in the test on Staphylococcus aureus [1] (5 μg/ml, 120 minutes).

As for `CC[C@H](C)[C@@H]1NC(=O)[C@@H](Cc2c[nH]c3ccccc23)NC(=O)[C@@H](CCC(N)=O)NC(=O)[C@H](CCC(=O)O)NC(=O)[C@@H](CCCNC(=N)N)NC(=O)[C@H](CC(C)C)NC(=O)[C@@H](Cc2ccccc2)N(C)C(=O)CNC(=O)[C@H](CO)NC(=O)[C@@H](CCCNC(=N)N)NC(=O)[C@@H](NC(=O)CC(O)CCCC(C)C)[C@@H](C)OC(=O)[C@H]([C@@H](C)O)NC1=O` (single isomer, unassigned) [Peak P8], the MIC in [2] is 12.5 mg/L (≈ 7.59 µM); in test [3] it was 50 mg/L (≈ 30.4 µM); in test [4], 12.5 mg/L (≈ 7.59 µM); in [5] it was 12.5 mg/L (≈ 7.59 µM); in [6] it was 25 mg/L (≈ 15.2 µM).

As for `CC[C@H](C)[C@@H]1NC(=O)[C@@H](Cc2c[nH]c3ccccc23)NC(=O)[C@@H](CCC(N)=O)NC(=O)[C@H](CCC(=O)O)NC(=O)[C@@H](CCCNC(=N)N)NC(=O)[C@H](CC(C)C)NC(=O)[C@@H](Cc2ccccc2)N(C)C(=O)CNC(=O)[C@H](CO)NC(=O)[C@@H](CCCNC(=N)N)NC(=O)[C@@H](NC(=O)CC(O)CCCC(C)C)[C@@H](C)OC(=O)[C@H]([C@@H](C)O)NC1=O` (single isomer, unassigned) [Peak P9], the MIC in [3] is 12.5 mg/L (≈ 7.59 µM); in test [6], 12.5 mg/L (≈ 7.59 µM); with Staphylococcus aureus [8], 5 mg/L (≈ 3.04 µM). This molecule also returned an ED50 in the test on Staphylococcus aureus [9] of 0.3 μg/g-larva.

Regarding `CC(C)CC(O)CC(=O)N[C@@H]1C(=O)N[C@H](CCCNC(=N)N)C(=O)N[C@@H](CO)C(=O)NCC(=O)N(C)[C@H](Cc2ccccc2)C(=O)N[C@@H](CC(C)C)C(=O)N[C@H](CCCNC(=N)N)C(=O)N[C@@H](CCC(=O)O)C(=O)N[C@H](CCC(N)=O)C(=O)N[C@H](Cc2c[nH]c3ccccc23)C(=O)N[C@@H](C(C)C)C(=O)N[C@@H]([C@@H](C)O)C(=O)O[C@@H]1C` (stereo partly drawn) [Peak P2] ({Hexanoyl(3-OH,5-Me)}-T[dR]SG[dNMeF]L[dR]E[dQ][dW]VT; ester 1-C), the MIC is 6.3 mg/L (≈ 3.93 µM) in [2]; 50 mg/L (≈ 31.2 µM) in test [3]; 12.5 mg/L (≈ 7.79 µM) in test [4]; 12.5 mg/L (≈ 7.79 µM) in test [5]; 50 mg/L (≈ 31.2 µM) in test [6].

Take `CC[C@H](C)[C@@H]1NC(=O)[C@@H](Cc2c[nH]c3ccccc23)NC(=O)[C@@H](CCC(N)=O)NC(=O)[C@H](CCC(=O)O)NC(=O)[C@@H](CCCNC(=N)N)NC(=O)[C@H](CC(C)C)NC(=O)[C@@H](Cc2ccccc2)NC(=O)CNC(=O)[C@H](CO)NC(=O)[C@@H](CCCNC(=N)N)NC(=O)[C@@H](NC(=O)CC(O)CCCC(C)C)[C@@H](C)OC(=O)[C@H]([C@@H](C)O)NC1=O` (single isomer, unassigned) [Peak P3]: the MIC came to 25 mg/L (≈ 15.3 µM) in test [2]; 50 mg/L (≈ 30.6 µM) in test [3]; 25 mg/L (≈ 15.3 µM) in test [4]; 25 mg/L (≈ 15.3 µM) in [5]; 50 mg/L (≈ 30.6 µM) in [6].
